Series [1] can be described thus: hygroscopicity of the crystalline salt. In kind it is physicochemical.
A short description of series [2]: solubility profile of the crystalline salt. Format: physicochemical.

In the case of “tris(hydroxymethyl)methylammonium (E)-7-[4-(4-fluorophenyl)-6-isopropyl-2-[methyl(methylsulfonyl)amino]pyrimidin-5-yl]-(3R,5S)-3,5-dihydroxyhept-6-enoate [Example 2]”, the hygroscopicity result in series [1] is reported as “non-hygroscopic”. In addition, the solubility profile entry in series [2] is listed as “advantageous solubility profile”.
